Data taken from article PMC6911004, “Fragment-based screening identifies molecules targeting the substrate-binding ankyrin repeat domains of tankyrase” (Scientific Reports, 2019).

Tests used:
TNKS2 ARC5 = molecular target: T1, TNKS2 ARC5 (Homo sapiens, UniProt Q9H2K2); assay: Differential scanning fluorimetry (DSF, thermal shift); assay type: binding; settings: fragment 500 μM
T1 construct: followed by TNKS2 ARC5 (1 μL, 100 μM stock); His6-GST; made in house; host or cells: E. coli
Experimental: Therefore, we chose TNKS2 ARC5 for screening by DSF, anticipating the largest signal window for measuring changes in Tm upon fragment binding.
We screened 1869 compounds in duplicate at a concentration of 500 μM, which we considered a reasonable compromise between having a sufficiently high concentration to identify weak binders while minimising the likelihood of false positives through fragment precipitation/aggregation and non-specific binding. The final DMSO concentration was 5%. We calculated melting temperatures using both the inflection point and the maximum peak of first derivative data methods. Both methods generally agreed, unless the melt curve was biphasic or misshapen, with slightly lower variability for the […] Tm determination method (see Materials and Methods for experimental and analysis details).
We determined the melting temperature for the unbound ARC (Tm, 0) from the mean of 12 reference melting curves per plate, with 5% DMSO only. We calculated the change in melting temperature (ΔTm) by subtracting the mean Tm, 0 from Tm, compound. We tested compounds in duplicate, defining fragments as hits if they conferred a ΔTm outside two standard deviations (2σ) from the mean, in one or both replicates. To check for consistency between plates, we ran triplicate peptide controls; however, we excluded peptide ΔTm values from the calculation of the mean ΔTm to avoid skewing the results. We observed mean ΔTm values (IP/1st derivative methods) of −0.127/−0.331 °C and σ as 0.997/1.19 °C. A hit cut-off of 2σ gave absolute shifts of +1.87/+2.05 °C for compounds that stabilised and −2.13/−2.71 °C for compounds that destabilised the ARC (Fig. 2B).
For the screen, a C1000 thermal cycler (Bio-Rad) was used to record melt curves. SYPRO Orange was purchased as a 5000 × stock in DMSO from Sigma Aldrich. The ICR fragment library was available as 100 mM stocks in DMSO, and dispensed (25 nL) using an ECHO acoustic liquid handling system into white 384-well PCR plates (Framestar, 4titude). Wells were backfilled with DMSO (225 nL). Buffer (2.75 μL, 25 mM HEPES-NaOH pH 7.5, 100 mM NaCl, 2 mM TCEP) was added, followed by TNKS2 ARC5 (1 μL, 100 μM stock) and then SYPRO orange dye (1 μL, 25×). The plate was centrifuged after the addition of each reagent (1 min, 1000 × g). Final assay concentrations were as follows: TNKS2 ARC5 (20 μM); fragment (500 μM); SYPRO Orange dye (5×); DMSO (5% v/v) in a total volume of 5 μL. Peptide control wells (3BP2 TBM 16-mer, 200 μM, sequence LPHLQRSPPDGQSFRSW with C-terminal tryptophan added for photometric concentration measurements, the N-terminus acetylated and the C-terminus amide-capped) were plated in triplicate, and there were 12 blank wells per plate, with DMSO only (250 nL, 5% v/v). Melt curves were recorded from 20–95 °C, with the temperature ramped by 0.5 °C every 15 s. Data were analysed using Vortex (Dotmatics) software and melting temperatures calculated from both the inflection point and the maximum peak of 1st-derivative data. Data points were excluded if the melt curve was poor, i.e., if there was no fluorescence signal above baseline, high fluorescence intensity throughout, or if the melt curve was shallow (<1000 rfu difference between baseline and peak maximum). The unbound melting temperature was determined from the mean of 12 reference melting curves, with 5% DMSO only. The change in melting temperature (ΔTm) was calculated by subtracting the mean Tm, 0 from Tm, compound. Compounds were tested in duplicate, and fragments were defined as hits if they gave a ΔTm outwith 2 σ from the mean in one or both replicates.
For the experiment shown in Fig. 2A, ARC and 3BP2 TBM peptide concentrations were 20 and 200 μM, respectively, in 50 mM HEPES-NaOH pH 7.5, 100 mM NaCl, 2 mM TCEP and a total volume of 25 μL. SYPRO Orange was added at 5×. Data were recorded from 4–95 °C, with the temperature ramped by 0.5 °C every 15 s, using a CFX384 thermal cycler (Bio-Rad). […]

TNKS2 ARC4 = molecular target: T2, TNKS2 ARC4 (Homo sapiens, UniProt Q9H2K2); assay: Primary fragment screen by T2 relaxation-edited ligand-observed NMR (cocktails of four); assay type: binding; settings: fragments 1 mM each, 35 μM protein
T2 construct: The cell was filled with TNKS2 ARC4 (488–649); His6-GST; made in house; host or cells: E. coli
T2 sequence (Q9H2K2 488-649): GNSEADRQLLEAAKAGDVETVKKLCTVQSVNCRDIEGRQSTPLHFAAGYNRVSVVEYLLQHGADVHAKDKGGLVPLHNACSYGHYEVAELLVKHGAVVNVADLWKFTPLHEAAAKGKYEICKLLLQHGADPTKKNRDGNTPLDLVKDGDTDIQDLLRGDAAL
Description: The hit rate for compounds confirmed to bind TNKS2 ARC5 as evaluated by NMR was relatively low, at 0.78%, and only 0.16% for fragments binding TNKS2 ARC4 and 5 competitively with a TBM peptide. Different screening assays often identify distinct hit fragments. There is no consensus on the most appropriate assays to use for fragment screening, especially against challenging targets such as protein-protein interactions. Often several orthogonal methods are used in series to narrow down fragment hits, or a combination of biophysical and biochemical assays to exclude false positives and identify binders that modulate protein activity. We therefore carried out an additional primary screen using T2 relaxation-edited ligand-observed NMR on TNKS2 ARC4, probing a subset of molecules from the ICR fragment library that was compatible with NMR. […]
Data were processed using Bruker Topsin 3.14, then analysed using the MNova Screen software. […] The relative peak intensity change (I) was calculated by Eq. 1 for all peaks in the 5.5–9.5 ppm region, for each compound.1 I=(Iblank−Iprotein)/Iblank
The average percentage change was then calculated, and compounds designated a hit if the signal was reduced by ≥26% (2 σ). […] Protein ^1H spectra of TNKS2 ARC4 (200 μM) were measured at 24 h intervals to ensure protein stability and folding for the duration of the screening experiments.

T1 sequence (Q9H2K2 641-800): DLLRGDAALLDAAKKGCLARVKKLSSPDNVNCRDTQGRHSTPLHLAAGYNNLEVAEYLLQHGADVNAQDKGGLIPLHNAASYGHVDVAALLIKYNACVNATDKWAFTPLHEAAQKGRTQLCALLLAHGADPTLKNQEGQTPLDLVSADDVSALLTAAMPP

Row | Structure (SMILES) | hit in DSF primary screen (TNKS2 ARC5) | hit in NMR primary screen (TNKS2 ARC4)
1 | Nc1nc(Nc2ccccc2)nc2ccccc12 [compound 7] | hits | hits
2 | CCOc1cccc(-c2cc(N)[nH]n2)c1 [compound 6] | hits | hits
